Experimental data as given in article PMC9837035 (Nature Communications, 2023).
pIC50: −log10 of the molar value. “And” between values parts separate entries of the source, which are not always exact repeats. Identical values can stand only once. Each block holds one compound with its values, some of them ahead of it.

Experiments:
[1] = test system: rat myoblast cell line H9c2; experiment: Cell viability assay (WST-8), H9c2; type: cell-based; settings: control (0 μM) = 100
Experimental: (§1) A WST-8 (2-(2-methoxy-4-nitrophenyl)-3-(4-nitrophenyl)-5-(2,4-disulfophenyl)-2H-tetrazolium) assay using a Cell Counting Kit-8 (DOJINDO) was performed to measure cell viability using an EnSpire microplate reader (PerkinElmer).

[2] = test system: HUDEP-2 cells; experiment: Cell viability assay (WST-8), HUDEP-2; type: cell-based, human; settings: control (0 μM) = 100
Experimental: as §1

[3] = test system: mice; experiment: Mouse acute toxicity assay, survival; type: in vivo; settings: intravenous, 2-week observation
Experimental: All animal studies were approved by the Institutional Committee for Animal Experiments of the Institute of Microbial Chemistry, and were performed in accordance with relevant guidelines and regulations to minimize animal suffering. Four-week-old female ICR mice were purchased from Charles River Breeding Laboratories (Yokohama, Japan) and maintained in a specific pathogen-free barrier facility. […] Samples were dissolved in saline containing 10% DMSO and 1% Tween 80 and injected intravenously into mice.

[4] = test system: Salmonella typhimurium TA100; experiment: Ames test, TA100
Experimental: (§2) The Salmonella mutagenicity assay was performed by pre-incubating the test compounds for 20 min with Salmonella typhimurium strains TA98 and TA100, with and without metabolic activation (S9 mixture).
(§3) After this time 2 mL of top agar was added to the mixture and poured on to a plate containing minimum agar. The plates were incubated at 37 °C for 49 h and the His ± revertant colonies were counted manually and automatically by a colony counter (Colony analyzer CA-11D systems, System science Co.,Ltd.). The influence of metabolic activation was tested by adding 500 μL of 10% S9 mixture. All experiments were performed in duplicate. […] DMSO served as the negative control (100 μL/plate). The mutagenic index (MI, the average number of revertants per plate divided by the average number of revertants per plate from the negative control) was also calculated for each dose. A sample was considered positive when the MI was equal to or greater than 2 for at least one of the tested doses.

[5] = test system: Salmonella typhimurium TA98; experiment: Ames test, TA98
Experimental: as §2, §3

[6] = test system: BGLT3 RNA in HUDEP-2 cells; experiment: RT-qPCR of BGLT3 in HUDEP-2 cells; type: cell-based, human; settings: relative to DMSO = 1, replicate values; for BGLT3 expression in HUDEP-2 cells: Sup.Fig.11a
Experimental: (§4) Total cellular RNA was prepared using the Tissue Total RNA Mini Kit (FAVORGEN), and cDNA was synthesized using ReverTra Ace Master Mix (TOYOBO). Expression of target genes was analyzed using THUNDERBIRD SYBR qPCR Mix (TOYOBO) on a CFX Connect Real Time System (Bio-Rad). The qPCR data were acquired on CFX Maestro (Bio-Rad). Primers are listed in Supplementary Table 10. GAPDH was used as a reference. Primers were purchased from INTEGRATED DNA TECHNOLOGIES or FASMAC.

[7] = test system: BGLT3-knockdown HUDEP-2 cells; experiment: RT-qPCR of BGLT3, β- and γ-globin in BGLT3-knockdown HUDEP-2 cells; type: cell-based, human; settings: 1 μM, relative to shctrl DMSO = 1, replicate values
Experimental: as §4
Retroviral infection was used as previously described to establish cell lines stably expressing BGLT3 and transfected with the pCX4-pur vector, as well as knockdown cell lines transfected with the pSUPER vector[58]. Briefly, retroviruses were produced by transfecting PLAT-E cells with pCX4-pur-BGLT3 or pSUPER-ctrl, pSUPER-BGLT3, or pSUPER-G9a using 5 μg/mL polyethylenimine MAX (PEI MAX, Polysciences). Two days after transfection, the culture supernatant was collected and filtered through a 0.45-μm filter (Millipore) and used for infection with 8 μg/mL polybrene (Sigma). Forty-eight hours after infection, the infected cells were selected with 0.2 μg/mL puromycin (InvivoGen). The clonal puromycin-resistant cells were established via limiting dilution. The desired clones were confirmed by western blotting or qPCR.

[8] = target: T1, G9a (Homo sapiens, UniProt Q96KQ7); experiment: In vitro G9a methyltransferase assay (AlphaLISA-based); type: biochemical; design: purchased BPS Bioscience
T1 sequence (Q96KQ7 1-1210): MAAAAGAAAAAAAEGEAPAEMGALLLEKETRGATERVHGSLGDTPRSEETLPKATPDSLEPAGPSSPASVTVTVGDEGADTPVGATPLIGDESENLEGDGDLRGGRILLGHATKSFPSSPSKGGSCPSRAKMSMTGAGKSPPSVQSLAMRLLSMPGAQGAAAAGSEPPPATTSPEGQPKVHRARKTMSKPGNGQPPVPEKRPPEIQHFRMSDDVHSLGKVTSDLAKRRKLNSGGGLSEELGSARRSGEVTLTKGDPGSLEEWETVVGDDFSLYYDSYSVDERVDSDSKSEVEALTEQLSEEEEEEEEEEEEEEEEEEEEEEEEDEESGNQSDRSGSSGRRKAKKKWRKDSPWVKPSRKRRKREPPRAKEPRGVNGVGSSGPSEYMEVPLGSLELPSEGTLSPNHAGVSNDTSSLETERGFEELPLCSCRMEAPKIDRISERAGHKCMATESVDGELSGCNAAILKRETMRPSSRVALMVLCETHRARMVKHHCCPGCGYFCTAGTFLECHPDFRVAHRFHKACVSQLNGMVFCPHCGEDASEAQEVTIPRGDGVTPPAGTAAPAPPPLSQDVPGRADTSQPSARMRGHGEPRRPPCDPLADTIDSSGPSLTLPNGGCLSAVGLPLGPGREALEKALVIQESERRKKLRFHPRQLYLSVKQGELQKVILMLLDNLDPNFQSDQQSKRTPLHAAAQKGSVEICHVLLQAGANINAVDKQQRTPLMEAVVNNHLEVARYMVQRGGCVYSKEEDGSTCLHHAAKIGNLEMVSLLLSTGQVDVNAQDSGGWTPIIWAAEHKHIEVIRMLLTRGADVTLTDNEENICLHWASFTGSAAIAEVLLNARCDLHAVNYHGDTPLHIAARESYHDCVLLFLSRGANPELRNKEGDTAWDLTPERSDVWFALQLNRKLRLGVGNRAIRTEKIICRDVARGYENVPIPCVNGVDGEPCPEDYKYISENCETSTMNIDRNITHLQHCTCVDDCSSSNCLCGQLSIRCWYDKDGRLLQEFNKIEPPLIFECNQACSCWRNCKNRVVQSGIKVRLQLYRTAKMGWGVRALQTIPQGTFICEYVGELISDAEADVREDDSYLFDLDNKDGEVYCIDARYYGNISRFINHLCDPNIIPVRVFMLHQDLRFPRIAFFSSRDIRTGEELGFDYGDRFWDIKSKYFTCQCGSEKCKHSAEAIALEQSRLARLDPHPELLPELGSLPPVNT
Experimental: An amplified luminescence proximity homogeneous assay (ALPHA) was performed with a modified version of a previously described method. Recombinant G9a proteins (BPS Bioscience) were incubated with 15 μM S-adenosyl-methionine (Sigma) and 50 nM biotinylated histone H3 (1-21; AnaSpec) in the assay buffer (50 mM Tris-HCl (pH 9.0), 50 mM NaCl, 0.01% Tween-20, and 1 mM DTT). After incubation at room temperature for 1 h, AlphaLISA anti-H3K9me2 acceptor beads (final concentration 10 μg/mL, PerkinElmer, AL117C) and AlphaScreen streptavidin donor beads (final concentration 10 μg/mL, PerkinElmer, 6760002B) were added and incubated for an additional 1 h prior to detection of the alpha signal with an EnSpire Alpha plate reader (PerkinElmer). ALPHA profile was analyzed using Origin (OriginLab).

[9] = test system: β- and γ-globin genes in HUDEP-2 cells; experiment: RT-qPCR of β- and γ-globin in HUDEP-2 cells; type: cell-based, human; settings: single agents or combination; relative to DMSO = 1; replicate values
Experimental: as §4

[10] = G9a activity, AlphaLISA-based assay, mean of three experiments
[11] = Sup.Table1, three replicate values

Structure (SMILES): COc1cc2c(cc1OCCCN1CCCC1)N=C(N)C21CCC1 [A-366]
cell viability in H9c2 cells ([1]; 0.039 μM): 104.360 and 99.467 and 89.907 | cell viability in H9c2 cells ([1]; 0.156 μM): 95.640 and 83.067 and 81.211 | cell viability in H9c2 cells ([1]; 0.625 μM): 92.264 and 78.533 and 78.882 | cell viability in H9c2 cells ([1]; 2.5 μM): 78.059 and 64.000 and 71.429 | cell viability in H9c2 cells ([1]; 10.0 μM): 53.868 and 49.733 and 52.329 | cell viability in HUDEP-2 cells ([2]; 0.00457247 μM): 82.0673 and 97.2549 and 93.6968 | cell viability in HUDEP-2 cells ([2]; 0.0137174 μM): 88.332 and 96 and 98.8075 | cell viability in HUDEP-2 cells ([2]; 0.0411523 μM): 83.007 and 93.4902 and 87.9046 | cell viability in HUDEP-2 cells ([2]; 0.123457 μM): 84.5732 and 96 and 89.6082 | cell viability in HUDEP-2 cells ([2]; 0.37037 μM): 79.2482 and 92.549 and 93.6968 | cell viability in HUDEP-2 cells ([2]; 1.11111 μM): 81.1276 and 90.6667 and 88.586 | cell viability in HUDEP-2 cells ([2]; 3.33333 μM): 67.9718 and 80.3137 and 66.7802 | cell viability in HUDEP-2 cells ([2]; 10 μM): 52.3101 and 64.9412 and 58.9438 | Number of alive mice ([3]; 0.1953125 mg/kg): 3/3 | Number of alive mice ([3]; 0.390625 mg/kg): 3/3 | Number of alive mice ([3]; 0.78125 mg/kg): 3/3 | Number of alive mice ([3]; 1.5625 mg/kg): 0/3 | Number of alive mice ([3]; 3.125 mg/kg): 0/3

Structure (SMILES): NC(=O)C(=Cc1ccc([N+](=O)[O-])o1)c1ccco1 [AF-2, 2-(2-furyl)-3-(5-nitro-2-furyl)acrylamide, reference compound]
Number of reverants/plate ([4]; TA100, - S9, base pair substitution mutation, 0.01 μg/plate): 725 and 728 | Number of revertants/plate ([4]; TA100, -S9, 0.01 μg/plate, positive control): 727 | Number of reverants/plate ([5]; TA98, - S9, frameshift mutation, 0.1 μg/plate): 497 and 507 | Number of revertants/plate ([5]; TA98, -S9, 0.1 μg/plate, positive control): 502

Structure (SMILES): Nc1ccccc1NC(=O)c1ccc(CNC(=O)OCc2cccnc2)cc1 [MS-275]
BGLT3 expression in HUDEP-2 cells [6]: 14.3147 and 21.8274 and 19.7082 | β-globin gene in BGLT3-knockdown HUDEP-2 cells ([7]; shBGLT3 #1): 3.1513 and 3.12 and 3.5502 | γ-globin gene in BGLT3-knockdown HUDEP-2 cells ([7]; shBGLT3 #1): 20.155 and 19.0925 and 20.8632 | β-globin gene in BGLT3-knockdown HUDEP-2 cells ([7]; shBGLT3 #2): 2.766 and 2.148 and 2.288 | γ-globin gene in BGLT3-knockdown HUDEP-2 cells ([7]; shBGLT3 #2): 8.523 and 7.607 and 25.7598 | β-globin gene in BGLT3-knockdown HUDEP-2 cells ([7]; shBGLT3 #3): 1.145 and 1.259 and 1.535 | γ-globin gene in BGLT3-knockdown HUDEP-2 cells ([7]; shBGLT3 #3): 19.0595 and 19.9736 and 20.0664 | β-globin gene in BGLT3-knockdown HUDEP-2 cells ([7]; shctrl): 4.7699 and 6.2041 and 4.688 | γ-globin gene in BGLT3-knockdown HUDEP-2 cells ([7]; shctrl): 47.2575 and 62.7038 and 44.6998

pIC50 [8, 10]: 4.67 | pIC50 [8, 11]: 4.61 and 4.68 and 4.73
Structure (SMILES): COC(=O)c1ccc2nc([C@H](CCSC)NC(=O)c3[nH]c4c(c3C)C(=O)CC(C)(C)C4)[nH]c2c1 [compound 8]

pIC50 [8, 10]: 6.52 | pIC50 [8, 11]: 6.52 and 6.54 and 6.50
Structure (SMILES): CSCC[C@H](NC(=O)c1[nH]c2c(c1C)C(=O)CC(C)(C)C2)C(=O)Nc1ccccc1 [compound 9]

Structure (SMILES): Nc1ncn([C@H]2C[C@H](O)[C@@H](CO)O2)c(=O)n1 [decitabine]
β-globin expression in HUDEP-2 cells treated with RK-701 and decitabine [9]: 0.9105 and 1.679 and 1.802 | γ-globin expression in HUDEP-2 cells treated with RK-701 and decitabine [9]: 5.299 and 8.189 and 8.892 | BGLT3 expression in HUDEP-2 cells [6]: 2.269 and 2.6404 and 2.1358 | BGLT3 expression in HUDEP-2 cells treated with RK-701 and decitabine ([6]; single agents or combination): 3.3143 and 2.772 and 4.351 | β-globin gene in BGLT3-knockdown HUDEP-2 cells ([7]; shBGLT3 #1): 0.735 and 0.7829 and 0.8722 | γ-globin gene in BGLT3-knockdown HUDEP-2 cells ([7]; shBGLT3 #1): 2.413 and 2.581 and 2.465 | β-globin gene in BGLT3-knockdown HUDEP-2 cells ([7]; shBGLT3 #2): 0.6218 and 0.5853 and 0.4869 | γ-globin gene in BGLT3-knockdown HUDEP-2 cells ([7]; shBGLT3 #2): 2.574 and 2.659 and 3.171 | β-globin gene in BGLT3-knockdown HUDEP-2 cells ([7]; shBGLT3 #3): 0.8092 and 0.8421 and 1.086 | γ-globin gene in BGLT3-knockdown HUDEP-2 cells ([7]; shBGLT3 #3): 1.425 and 1.467 and 1.465 | β-globin gene in BGLT3-knockdown HUDEP-2 cells ([7]; shctrl): 0.8786 and 0.8917 and 0.7285 | γ-globin gene in BGLT3-knockdown HUDEP-2 cells ([7]; shctrl): 8.583 and 10.749 and 7.48
